Reference: article PMC8037182, “Solvothermal Synthesis of Multiple Dihydropyrimidinones at a Time as Inhibitors of Eg5” (Molecules, 2021)

Legend:
Caco-2 cell line = test: Cytotoxicity MTS assay, Caco-2 cell line; assay type: cell-based; conditions: for OD490 Mean / OD490 Well 1 / OD490 Well 2 / OD490 Well 3: Caco-2 cell line
Method in brief: (§1)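 MTS antiproliferation; 1000 cells/well, 24 h pre-incubation; compound 0.5–100 µM final, 24 h exposure; vehicle 0.025% DMSO; monastrol positive control; MTS 2 h, 37 °C, 5% CO2; A490; IC50 by non-linear regression of % viability vs concentration; three independent duplicate runs.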

T24 cell line = test: Cytotoxicity MTS assay, T24 cell line; assay type: cell-based; conditions: for OD490 Mean / OD490 Well 1 / OD490 Well 2 / OD490 Well 3: T24 cell line, first assay;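 for OD490 Mean: blank control wells received 0.025% DMSO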;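 for OD490 Well 1: blank control wells received 0.025% DMSO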;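 for OD490 Well 2: blank control wells received 0.025% DMSO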;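 for OD490 Well 3: blank control wells received 0.025% DMSO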
Method in brief: as §1

CCOC(=O)c1[nH]c(C2NC(=O)NC(C)=C2C(=O)Nc2ccccc2OC)c(C(=O)OC)c1C (centres unmarked) [D3]
OD490 Mean (Caco-2 cell line; 0.5μM, first assay): 0.6387 | OD490 Well 1 (Caco-2 cell line; 0.5μM, first assay): 0.6262 | OD490 Well 2 (Caco-2 cell line; 0.5μM, first assay): 0.6384 | OD490 Well 3 (Caco-2 cell line; 0.5μM, first assay): 0.6515 | OD490 Mean (Caco-2 cell line; 0.5μM, second assay): 0.7146 | OD490 Well 1 (Caco-2 cell line; 0.5μM, second assay): 0.7283 | OD490 Well 2 (Caco-2 cell line; 0.5μM, second assay): 0.7863 | OD490 Well 3 (Caco-2 cell line; 0.5μM, second assay): 0.6291 | OD490 Mean (Caco-2 cell line; 0.5μM, third assay): 0.6707 | OD490 Well 1 (Caco-2 cell line; 0.5μM, third assay): 0.6256 | OD490 Well 2 (Caco-2 cell line; 0.5μM, third assay): 0.6879 | OD490 Well 3 (Caco-2 cell line; 0.5μM, third assay): 0.6985 | OD490 Mean (Caco-2 cell line; 1μM, first assay): 0.6598 | OD490 Well 1 (Caco-2 cell line; 1μM, first assay): 0.6405 | OD490 Well 2 (Caco-2 cell line; 1μM, first assay): 0.6612 | OD490 Well 3 (Caco-2 cell line; 1μM, first assay): 0.6777 | OD490 Mean (Caco-2 cell line; 1μM, second assay): 0.6524 | OD490 Well 1 (Caco-2 cell line; 1μM, second assay): 0.6596 | OD490 Well 2 (Caco-2 cell line; 1μM, second assay): 0.7226 | OD490 Well 3 (Caco-2 cell line; 1μM, second assay): 0.5749 | OD490 Mean (Caco-2 cell line; 1μM, third assay): 0.7014 | OD490 Well 1 (Caco-2 cell line; 1μM, third assay): 0.6954 | OD490 Well 2 (Caco-2 cell line; 1μM, third assay): 0.6888 | OD490 Well 3 (Caco-2 cell line; 1μM, third assay): 0.7201 | OD490 Mean (Caco-2 cell line; 10μM, first assay): 0.6769 | OD490 Well 1 (Caco-2 cell line; 10μM, first assay): 0.6754 | OD490 Well 2 (Caco-2 cell line; 10μM, first assay): 0.6571 | OD490 Well 3 (Caco-2 cell line; 10μM, first assay): 0.6982 | OD490 Mean (Caco-2 cell line; 10μM, second assay): 0.7108 | OD490 Well 1 (Caco-2 cell line; 10μM, second assay): 0.7146 | OD490 Well 2 (Caco-2 cell line; 10μM, second assay): 0.7063 | OD490 Well 3 (Caco-2 cell line; 10μM, second assay): 0.7114 | OD490 Mean (Caco-2 cell line; 10μM, third assay): 0.7093 | OD490 Well 1 (Caco-2 cell line; 10μM, third assay): 0.6912 | OD490 Well 2 (Caco-2 cell line; 10μM, third assay): 0.7365 | OD490 Well 3 (Caco-2 cell line; 10μM, third assay): 0.7003 | OD490 Mean (Caco-2 cell line; 25μM, first assay): 0.6846 | OD490 Well 1 (Caco-2 cell line; 25μM, first assay): 0.6410 | OD490 Well 2 (Caco-2 cell line; 25μM, first assay): 0.7249 | OD490 Well 3 (Caco-2 cell line; 25μM, first assay): 0.6880 | OD490 Mean (Caco-2 cell line; 25μM, second assay): 0.6529 | OD490 Well 1 (Caco-2 cell line; 25μM, second assay): 0.662 | OD490 Well 2 (Caco-2 cell line; 25μM, second assay): 0.6871 | OD490 Well 3 (Caco-2 cell line; 25μM, second assay): 0.6097 | OD490 Mean (Caco-2 cell line; 25μM, third assay): 0.6888 | OD490 Well 1 (Caco-2 cell line; 25μM, third assay): 0.6989 | OD490 Well 2 (Caco-2 cell line; 25μM, third assay): 0.6784 | OD490 Well 3 (Caco-2 cell line; 25μM, third assay): 0.6891 | OD490 Mean (Caco-2 cell line; 50μM, first assay): 0.7773 | OD490 Well 1 (Caco-2 cell line; 50μM, first assay): 0.7708 | OD490 Well 2 (Caco-2 cell line; 50μM, first assay): 0.7874 | OD490 Well 3 (Caco-2 cell line; 50μM, first assay): 0.7736 | OD490 Mean (Caco-2 cell line; 50μM, second assay): 0.7093 | OD490 Well 1 (Caco-2 cell line; 50μM, second assay): 0.7521 | OD490 Well 2 (Caco-2 cell line; 50μM, second assay): 0.7258 | OD490 Well 3 (Caco-2 cell line; 50μM, second assay): 0.6501 | OD490 Mean (Caco-2 cell line; 50μM, third assay): 0.7169 | OD490 Well 1 (Caco-2 cell line; 50μM, third assay): 0.6532 | OD490 Well 2 (Caco-2 cell line; 50μM, third assay): 0.7354 | OD490 Well 3 (Caco-2 cell line; 50μM, third assay): 0.7621 | OD490 Mean (Caco-2 cell line; 100μM, first assay): 0.5588 | OD490 Well 1 (Caco-2 cell line; 100μM, first assay): 0.5950 | OD490 Well 2 (Caco-2 cell line; 100μM, first assay): 0.5357 | OD490 Well 3 (Caco-2 cell line; 100μM, first assay): 0.5456 | OD490 Mean (Caco-2 cell line; 100μM, second assay): 0.7013 | OD490 Well 1 (Caco-2 cell line; 100μM, second assay): 0.7196 | OD490 Well 2 (Caco-2 cell line; 100μM, second assay): 0.6757 | OD490 Well 3 (Caco-2 cell line; 100μM, second assay): 0.7086 | OD490 Mean (Caco-2 cell line; 100μM, third assay): 0.7231 | OD490 Well 1 (Caco-2 cell line; 100μM, third assay): 0.7561 | OD490 Well 2 (Caco-2 cell line; 100μM, third assay): 0.7145 | OD490 Well 3 (Caco-2 cell line; 100μM, third assay): 0.6987 | IC50 (Caco-2 cell line; MTS assay, 24 h exposure): > 150 µM | IC50 (T24 cell line; MTS assay, 24 h exposure): > 150 µM | OD490 Mean (T24 cell line; 0.5μM): 1.8317 | OD490 Well 1 (T24 cell line; 0.5μM): 1.9267 | OD490 Well 2 (T24 cell line; 0.5μM): 1.7284 | OD490 Well 3 (T24 cell line; 0.5μM): 1.8399 | OD490 Mean (T24 cell line; 1μM): 1.4215 | OD490 Well 1 (T24 cell line; 1μM): 1.4512 | OD490 Well 2 (T24 cell line; 1μM): 1.4430 | OD490 Well 3 (T24 cell line; 1μM): 1.3702 | OD490 Mean (T24 cell line; 10μM): 1.5897 | OD490 Well 1 (T24 cell line; 10μM): 1.3957 | OD490 Well 2 (T24 cell line; 10μM): 1.6776 | OD490 Well 3 (T24 cell line; 10μM): 1.6957 | OD490 Mean (T24 cell line; 25μM): 1.4932 | OD490 Well 1 (T24 cell line; 25μM): 1.4267 | OD490 Well 2 (T24 cell line; 25μM): 1.6194 | OD490 Well 3 (T24 cell line; 25μM): 1.4336 | OD490 Mean (T24 cell line; 50μM): 1.4228 | OD490 Well 1 (T24 cell line; 50μM): 1.3624 | OD490 Well 2 (T24 cell line; 50μM): 1.4440 | OD490 Well 3 (T24 cell line; 50μM): 1.4620 | OD490 Mean (T24 cell line; 100μM): 1.3750 | OD490 Well 1 (T24 cell line; 100μM): 1.3903 | OD490 Well 2 (T24 cell line; 100μM): 1.4568 | OD490 Well 3 (T24 cell line; 100μM): 1.2780
